A word on the viability: it is a read-out of living cells in per cent, often relative to untreated cells.

Data on 20 compounds can be found in article PMC6556873, “Rapid Covalent-Probe Discovery by Electrophile-Fragment Screening” (Journal of the American Chemical Society, 2019).

Where two headings read alike, the source gives them in different places.

Series [1] deals with T1, OTUB2 (OTUB2A) (Homo sapiens, UniProt Q96DC9).
T1 construct: full length residues 1-234, E. coli BL21(DE3)-R3, His tag removed by TEV, construct 27312 Da
T1 sequence (Q96DC9 1-234): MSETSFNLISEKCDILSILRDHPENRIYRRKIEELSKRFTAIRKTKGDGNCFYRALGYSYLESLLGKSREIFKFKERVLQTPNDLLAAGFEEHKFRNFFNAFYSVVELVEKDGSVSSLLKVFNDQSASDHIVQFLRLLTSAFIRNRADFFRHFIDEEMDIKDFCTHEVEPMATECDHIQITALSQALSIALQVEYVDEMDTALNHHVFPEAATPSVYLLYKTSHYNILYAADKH
Set-up: Intact protein LC/MS covalent labelling, fragments in pools of five, 200 uM each, 4 °C. The following applies: 24 h, 4 °C, pool of five; 200 µM; covalent.

Series [2] addresses T2, NUDT7 (Homo sapiens, UniProt P0C024).
T2 construct: residues 14-235, E. coli, pNIC28-Bsa4, N-terminal His6 tag removed by TEV, construct 26672 Da
Further details: Intact protein LC/MS covalent labelling, fragments in pools of five, 200 uM each, 4 °C. The following applies: 24 h, 4 °C, pool of five; 200 µM; covalent.

For series [3], the target named is T3, PCAF (Homo sapiens, UniProt Q92831).
T3 construct: gene KAT2B
T3 sequence (Q92831 whole entry): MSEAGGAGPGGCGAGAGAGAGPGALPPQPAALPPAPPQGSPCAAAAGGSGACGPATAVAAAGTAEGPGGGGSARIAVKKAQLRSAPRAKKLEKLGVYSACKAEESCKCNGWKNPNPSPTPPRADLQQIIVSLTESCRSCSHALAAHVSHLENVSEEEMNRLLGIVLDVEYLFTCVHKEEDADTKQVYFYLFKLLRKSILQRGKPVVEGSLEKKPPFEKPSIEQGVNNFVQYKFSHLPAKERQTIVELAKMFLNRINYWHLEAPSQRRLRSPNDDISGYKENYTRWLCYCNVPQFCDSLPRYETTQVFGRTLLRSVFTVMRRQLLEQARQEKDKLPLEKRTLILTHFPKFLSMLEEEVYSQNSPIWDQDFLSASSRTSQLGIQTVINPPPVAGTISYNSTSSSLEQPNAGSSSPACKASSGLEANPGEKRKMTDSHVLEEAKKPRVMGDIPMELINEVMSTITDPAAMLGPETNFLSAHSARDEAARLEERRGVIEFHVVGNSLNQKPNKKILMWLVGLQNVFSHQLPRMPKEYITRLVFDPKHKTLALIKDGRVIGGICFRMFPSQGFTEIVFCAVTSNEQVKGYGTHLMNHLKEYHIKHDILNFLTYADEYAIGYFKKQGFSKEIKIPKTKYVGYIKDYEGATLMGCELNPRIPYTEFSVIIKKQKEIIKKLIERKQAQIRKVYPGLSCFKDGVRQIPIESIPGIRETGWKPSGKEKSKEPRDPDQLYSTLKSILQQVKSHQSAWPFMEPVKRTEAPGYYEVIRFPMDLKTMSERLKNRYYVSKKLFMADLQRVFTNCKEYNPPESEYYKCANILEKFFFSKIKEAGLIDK
Further details: Intact protein LC/MS covalent labelling, fragments in pools of five, 200 uM each, 4 °C. As to conditions: 24 h, 4 °C, pool of five; 200 µM; covalent.

The target in series [4] is T4, NNMT (hNNMT) (Homo sapiens, UniProt P40261).
T4 construct: wild type, N-terminal His6 tag kept (no cleavage described), E. coli, construct 31248 Da
T4 sequence (P40261 1-264): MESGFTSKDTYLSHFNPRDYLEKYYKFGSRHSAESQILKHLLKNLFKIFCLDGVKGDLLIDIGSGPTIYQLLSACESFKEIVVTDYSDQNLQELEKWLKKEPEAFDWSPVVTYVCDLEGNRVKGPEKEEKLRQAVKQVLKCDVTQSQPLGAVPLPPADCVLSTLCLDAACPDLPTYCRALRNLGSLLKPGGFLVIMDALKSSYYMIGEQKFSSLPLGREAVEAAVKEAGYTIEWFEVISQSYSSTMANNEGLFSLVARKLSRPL
Further details: Intact protein LC/MS covalent labelling, fragments in pools of five, 200 uM each, 4 °C. As to conditions: 24 h, 4 °C, pool of five; 200 µM; covalent.

Series [5] concerns the target T5, BSA (Bos taurus, UniProt P02769).
T5 construct: gene ALB
Further details: Intact protein LC/MS covalent labelling, fragments in pools of five, 200 uM each, 4 °C. The following applies: 24 h, 4 °C, pool of five; 200 µM; covalent.

A short description of series [6]: in vitro. Further details: species or system CCD841, HEK293. The following applies: human, hb2 cells, read-out: HB-2 Cells Viability (%).
Series [7] is described as follows: in vitro. Further details: species or system HB2, HEK293. As to conditions: human, ccd841 cells.
The nature of series [8]: in vitro. Set-up: species or system HB2, CCD841. The following applies: human, hek293 cells.

T2 sequence (P0C024 14-235): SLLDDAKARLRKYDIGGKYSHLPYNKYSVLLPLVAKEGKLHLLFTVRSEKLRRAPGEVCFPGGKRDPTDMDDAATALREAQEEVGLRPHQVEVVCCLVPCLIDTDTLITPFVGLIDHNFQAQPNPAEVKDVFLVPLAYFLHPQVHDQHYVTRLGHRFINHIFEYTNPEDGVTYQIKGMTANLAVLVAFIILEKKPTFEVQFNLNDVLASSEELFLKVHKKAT
T5 sequence (P02769 whole entry): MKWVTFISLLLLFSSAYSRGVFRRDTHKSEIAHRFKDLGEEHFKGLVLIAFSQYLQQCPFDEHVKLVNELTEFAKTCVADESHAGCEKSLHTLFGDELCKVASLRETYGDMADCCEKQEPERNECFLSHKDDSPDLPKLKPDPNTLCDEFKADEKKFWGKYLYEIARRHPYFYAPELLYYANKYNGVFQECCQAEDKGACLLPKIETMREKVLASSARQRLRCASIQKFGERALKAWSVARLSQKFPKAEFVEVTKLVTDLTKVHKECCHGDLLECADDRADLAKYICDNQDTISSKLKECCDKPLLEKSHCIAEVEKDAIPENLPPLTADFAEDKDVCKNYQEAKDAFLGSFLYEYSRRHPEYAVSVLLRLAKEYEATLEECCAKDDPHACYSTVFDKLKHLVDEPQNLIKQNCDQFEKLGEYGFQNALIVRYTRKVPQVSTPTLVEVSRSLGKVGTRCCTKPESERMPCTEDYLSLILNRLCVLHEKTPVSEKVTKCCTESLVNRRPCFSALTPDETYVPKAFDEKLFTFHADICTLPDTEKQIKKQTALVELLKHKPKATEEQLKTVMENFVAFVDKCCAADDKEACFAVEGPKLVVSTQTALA

Regarding `O=C(CCl)N1CCOC1=O` [PCM-0102943], in series [1], the OTUB2 stood at 0. Also, the NUDT7 in series [2] is on record as 0.08. In series [3], this compound gave a PCAF of 0. The compound also registered an NNMT in series [4] of 0. In series [5], this compound gave a BSA of 0. In addition, the viability at 48 h, 10 µM was determined as 101% in series [6], 109% in series [7] and 108% in series [8].

As to `Cc1nc(C2(NC(=O)CCl)CCCCCC2)no1` [PCM-0102944], the OTUB2 in series [1] is on record as 0. The NUDT7 in series [2] is reported as 0. The compound also registered a PCAF in series [3] of 0. The NNMT in series [4] was found to be 0. Besides, the BSA in series [5] was 0. Also, the viability at 48 h, 10 µM in series [6] stood at 103%; in series [7], 113%; in series [8], 129%.

`Cl.O=C(CCl)NCc1ccccn1` [PCM-0102950] came in with an OTUB2 in series [1] of 0. In series [2], this compound showed an NUDT7 of 0. Further, the PCAF in series [3] is reported as 0. In series [4], the NNMT is given as 0. The BSA in series [5] came to 0. For the same compound, the viability at 48 h, 10 µM stood at 100% in series [6], 109% in series [7] and 97.4% in series [8].

For the compound `C=CC(=O)NCC1CCCc2sc(C)nc21` (stereo not shown) [PCM-0102952], the OTUB2 in series [1] is reported as 0. In series [2], this compound gave an NUDT7 of 0. In addition, in series [3], the PCAF is listed as 0. In series [4], this compound had an NNMT of 0. The BSA in series [5] was found to be 0. Further, the viability at 48 h, 10 µM turned out to be 97.6% in series [6], 114% in series [7] and 95.2% in series [8].

On to `Cc1ccc(NC(=O)CCl)cc1Br` [PCM-0102955], for which the OTUB2 in series [1] amounted to 0.14. In addition, in series [2], the NUDT7 turned out to be 0.27. Moreover, in series [3], the PCAF came to 0. The same compound came in with an NNMT in series [4] of 0.78. For the same compound, the BSA in series [5] amounted to 0. For the same compound, the values for the viability at 48 h, 10 µM in series [6], in series [7] and in series [8] were 41.5%, 71.2% and 38.3%, respectively.

Turning to `CN(Cc1ccc2c(c1)OCCO2)C(=O)CCl` [PCM-0102958], in series [1], the OTUB2 was 0.09. Moreover, the NUDT7 in series [2] amounted to 0.27. For the same compound, the PCAF in series [3] is given as 0. The NNMT in series [4] came to 0. The compound also showed a BSA in series [5] of 0. The viability at 48 h, 10 µM in series [6] was 74.4%; in series [7], 81%; in series [8], 52%.

Compound `Cc1ccc(C(=O)N2CCN(C(=O)CCl)CC2)cc1` [PCM-0102962] showed an OTUB2 in series [1] of 0. In series [2], this compound showed an NUDT7 of 0. Besides, the PCAF in series [3] was 0. The NNMT in series [4] is recorded as 0. Further, the BSA in series [5] was found to be 0. Further, the figures for the viability at 48 h, 10 µM in series [6], in series [7] and in series [8] were 30.1%, 75.3% and 15.6%, respectively.

`C=CC(=O)N1CCCN(c2ccc(-c3ccccc3)nn2)CC1` [PCM-0102964] showed an OTUB2 in series [1] of 0. Besides, the NUDT7 in series [2] is recorded as 0. The PCAF in series [3] was 0. Besides, the NNMT in series [4] came to 0. The BSA in series [5] was 0. In addition, the viability at 48 h, 10 µM turned out to be 102% in series [6], 103% in series [7] and 87.2% in series [8].

`C=CC(=O)Nc1ccccc1C(=O)OC` [PCM-0102967] came in with an OTUB2 in series [1] of 0. For the same compound, the NUDT7 in series [2] was 0.51. In series [3], the PCAF turned out to be 0. In series [4], the NNMT is on record as 0. The BSA in series [5] amounted to 0. Also, the values for the viability at 48 h, 10 µM in series [6], in series [7] and in series [8] were 90.2%, 81% and 68.8%, respectively.

In turn, `O=C(CCl)N1CCC(C(=O)N2CCCCC2)CC1` [PCM-0102972] displayed an OTUB2 in series [1] of 0.08. Besides, in series [2], the NUDT7 is recorded as 0. This compound also showed a PCAF in series [3] of 0. In series [4], this compound had an NNMT of 0. The BSA in series [5] is listed as 0. The viability at 48 h, 10 µM in series [6] was 84.6%; in series [7], 106%; in series [8], 76.6%.

In series [1], `COC(=O)C1CCN(C(=O)CCl)CC1` [PCM-0102978] showed an OTUB2 of 0. In series [2], this compound came in with an NUDT7 of 0. In series [3], this compound gave a PCAF of 0. In series [4], this compound returned an NNMT of 0. This compound also returned a BSA in series [5] of 0. The viability at 48 h, 10 µM in series [6] amounted to 100%; in series [7] it was 110%; in series [8] it was 99.4%.

In series [1], `O=C(CCl)N1CCCC1=O` [PCM-0102982] displayed an OTUB2 of 0. This compound showed an NUDT7 in series [2] of 0. In series [3], the PCAF was determined as 0. In series [4], this compound returned an NNMT of 0. The compound also yielded a BSA in series [5] of 0. The results for the viability at 48 h, 10 µM in series [6], in series [7] and in series [8] were 111%, 101% and 114%, respectively.

`Cc1nc(C2(NC(=O)CCl)CCCCC2)no1` [PCM-0102983]: in series [1], the OTUB2 is 0. The NUDT7 in series [2] came out at 0.1. The compound further came in with a PCAF in series [3] of 0. Also, in series [4], the NNMT turned out to be 0. In series [5], this compound gave a BSA of 0. Further, the results for the viability at 48 h, 10 µM in series [6], in series [7] and in series [8] were 102%, 112% and 99.7%, respectively.

The compound `CN(Cc1ccccc1)C(=O)CCl` [PCM-0102984] displayed an OTUB2 in series [1] of 0. In series [2], this compound gave an NUDT7 of 0.11. This compound registered a PCAF in series [3] of 0. The compound further came in with an NNMT in series [4] of 0. The compound also showed a BSA in series [5] of 0. Further, the figures for the viability at 48 h, 10 µM in series [6], in series [7] and in series [8] were 78.6%, 91.6% and 55.2%, respectively.

Turning to `C=CC(=O)N1CCC(C(=O)c2cccs2)CC1` [PCM-0102989], the OTUB2 in series [1] is on record as 0. The compound also registered an NUDT7 in series [2] of 0. This compound also came in with a PCAF in series [3] of 0. In series [4], this compound gave an NNMT of 0. The same compound registered a BSA in series [5] of 0. In addition, the results for the viability at 48 h, 10 µM in series [6], in series [7] and in series [8] were 97.7%, 97.9% and 102%, respectively.

As to `C=CC(=O)NC1CCCN(c2cc(C)nn2C)C1=O` (stereo not shown) [PCM-0102991], in series [1], the OTUB2 was found to be 0. Further, the NUDT7 in series [2] is recorded as 0. Further, the PCAF in series [3] was 0. In series [4], this compound displayed an NNMT of 0. In series [5], this compound returned a BSA of 0. The results for the viability at 48 h, 10 µM in series [6], in series [7] and in series [8] were 98.2%, 113% and 94.5%, respectively.

In series [1], `N#CC1(NC(=O)CCl)CCCCC1` [PCM-0102993] displayed an OTUB2 of 0. In addition, in series [2], the NUDT7 stood at 0.08. This compound gave a PCAF in series [3] of 0. For the same compound, in series [4], the NNMT stood at 0. In series [5], this compound came in with a BSA of 0. Besides, the viability at 48 h, 10 µM was 87.6% in series [6], 83.3% in series [7] and 66% in series [8].

`Cc1cc(C)c(NC(=O)CCl)c(Cl)c1` [PCM-0102994] gave an OTUB2 in series [1] of 0. In addition, in series [2], the NUDT7 stood at 0.26. Moreover, the PCAF in series [3] came to 0. For the same compound, the NNMT in series [4] amounted to 0.46. For the same compound, the BSA in series [5] came to 0. Moreover, the viability at 48 h, 10 µM in series [6] was 94%; in series [7] it was 73.1%; in series [8], 74.1%.

As to `CC(NC(=O)NC(=O)CCl)C1CC2CCC1C2` (stereo not shown) [PCM-0102997], in series [1], the OTUB2 came to 0.05. In series [2], this compound returned an NUDT7 of 0. The compound also registered a PCAF in series [3] of 0. Besides, the NNMT in series [4] worked out at 0.23. Besides, in series [5], the BSA worked out at 0. The viability at 48 h, 10 µM worked out at 98.1% in series [6], 116% in series [7] and 91.4% in series [8].

In series [1], `O=C(CCl)Nc1ccc(F)cc1` [PCM-0103002] came in with an OTUB2 of 0.3. The compound further came in with an NUDT7 in series [2] of 0. In addition, the PCAF in series [3] stood at 0. In series [4], this compound came in with an NNMT of 0. For the same compound, in series [5], the BSA is 0. Moreover, the values for the viability at 48 h, 10 µM in series [6], in series [7] and in series [8] were 68.5%, 71.8% and 35.5%, respectively.
